In this data set the test system is CCRIS mutagenicity, Ames/micronucleus/aberration tests. The data set can be described thus: CCRIS mutagenicity studies.

This is an account of results in PubChem BioAssay AID1259407 (Chemical Carcinogenesis Research Information System (CCRIS), 2018).

Active and inactive are the calls of the source. No rule for the calls is given here.

Turning to `O=Cc1c(Cl)cccc1Cl`, the mutagenic call is “inactive; negative” (Test System: AMES SALMONELLA TYPHIMURIUM, Strain/Indicator: TA97, Metabolic Activation: HAMSTER, LIVER, S-9, AROCLOR 1254 (10%), Method: PREINCUBATION); “inactive; negative” (Test System: AMES SALMONELLA TYPHIMURIUM, Strain/Indicator: TA97, Metabolic Activation: HAMSTER, LIVER, S-9, AROCLOR 1254 (30%), Method: PREINCUBATION); “inactive; negative” (Test System: AMES SALMONELLA TYPHIMURIUM, Strain/Indicator: TA97, Metabolic Activation: NONE, Method: PREINCUBATION); “inactive; negative” (Test System: AMES SALMONELLA TYPHIMURIUM, Strain/Indicator: TA97, Metabolic Activation: RAT, LIVER, S-9, AROCLOR 1254 (10%), Method: PREINCUBATION); “inactive; negative” (Test System: AMES SALMONELLA TYPHIMURIUM, Strain/Indicator: TA97, Metabolic Activation: RAT, LIVER, S-9, AROCLOR 1254 (30%), Method: PREINCUBATION); “inactive; negative” (Test System: AMES SALMONELLA TYPHIMURIUM, Strain/Indicator: TA98, Metabolic Activation: HAMSTER, LIVER, S-9, AROCLOR 1254 (10%), Method: PREINCUBATION). The mutagenic call reads like this: (Test System: AMES SALMONELLA TYPHIMURIUM, Strain/Indicator: TA98, Metabolic Activation: HAMSTER, LIVER, S-9, AROCLOR 1254 (30%), Method: PREINCUBATION) “inactive; negative”; (Test System: AMES SALMONELLA TYPHIMURIUM, Strain/Indicator: TA98, Metabolic Activation: NONE, Method: PREINCUBATION) “inactive; negative”; (Test System: AMES SALMONELLA TYPHIMURIUM, Strain/Indicator: TA98, Metabolic Activation: RAT LIVER S-9 PCB, Method: PREINCUBATION) “inactive; negative”; (Test System: AMES SALMONELLA TYPHIMURIUM, Strain/Indicator: TA98, Metabolic Activation: RAT, LIVER, S-9, AROCLOR 1254 (10%), Method: PREINCUBATION) “inactive; negative”; (Test System: AMES SALMONELLA TYPHIMURIUM, Strain/Indicator: TA98, Metabolic Activation: RAT, LIVER, S-9, AROCLOR 1254 (30%), Method: PREINCUBATION) “inactive; negative”; (Test System: AMES SALMONELLA TYPHIMURIUM, Strain/Indicator: TA100, Metabolic Activation: HAMSTER, LIVER, S-9, AROCLOR 1254 (10%), Method: PREINCUBATION) “inactive; negative”. Also, the mutagenic call is, setting by setting: (Test System: AMES SALMONELLA TYPHIMURIUM, Strain/Indicator: TA100, Metabolic Activation: HAMSTER, LIVER, S-9, AROCLOR 1254 (30%), Method: PREINCUBATION) “inactive; negative”; (Test System: AMES SALMONELLA TYPHIMURIUM, Strain/Indicator: TA100, Metabolic Activation: NONE, Method: PREINCUBATION) “inactive; negative”; (Test System: AMES SALMONELLA TYPHIMURIUM, Strain/Indicator: TA100, Metabolic Activation: RAT LIVER S-9, PCB, Method: PREINCUBATION) “inactive; negative”; (Test System: AMES SALMONELLA TYPHIMURIUM, Strain/Indicator: TA100, Metabolic Activation: RAT, LIVER, S-9, AROCLOR 1254 (10%), Method: PREINCUBATION) “inactive; negative”; (Test System: AMES SALMONELLA TYPHIMURIUM, Strain/Indicator: TA100, Metabolic Activation: RAT, LIVER, S-9, AROCLOR 1254 (30%), Method: PREINCUBATION) “inactive; negative”; (Test System: AMES SALMONELLA TYPHIMURIUM, Strain/Indicator: TA104, Metabolic Activation: HAMSTER, LIVER, S-9, AROCLOR 1254 (10%), Method: PREINCUBATION) “inactive; negative”. Also, the mutagenic call reads like this: (Test System: AMES SALMONELLA TYPHIMURIUM, Strain/Indicator: TA104, Metabolic Activation: HAMSTER, LIVER, S-9, AROCLOR 1254 (30%), Method: PREINCUBATION) “inactive; negative”; (Test System: AMES SALMONELLA TYPHIMURIUM, Strain/Indicator: TA104, Metabolic Activation: NONE, Method: PREINCUBATION) “inactive; negative”; (Test System: AMES SALMONELLA TYPHIMURIUM, Strain/Indicator: TA104, Metabolic Activation: RAT LIVER S-9, PCB, Method: PREINCUBATION) “inactive; negative”; (Test System: AMES SALMONELLA TYPHIMURIUM, Strain/Indicator: TA104, Metabolic Activation: RAT, LIVER, S-9, AROCLOR 1254 (10%), Method: PREINCUBATION) “inactive; negative”; (Test System: AMES SALMONELLA TYPHIMURIUM, Strain/Indicator: TA104, Metabolic Activation: RAT, LIVER, S-9, AROCLOR 1254 (30%), Method: PREINCUBATION) “inactive; negative”; (Test System: AMES SALMONELLA TYPHIMURIUM, Strain/Indicator: TA1535, Metabolic Activation: HAMSTER, LIVER, S-9, AROCLOR 1254 (10%), Method: PREINCUBATION) “inactive; negative”. Also, the mutagenic call was “inactive; negative” (Test System: AMES SALMONELLA TYPHIMURIUM, Strain/Indicator: TA1535, Metabolic Activation: HAMSTER, LIVER, S-9, AROCLOR 1254 (30%), Method: PREINCUBATION); “inactive; negative” (Test System: AMES SALMONELLA TYPHIMURIUM, Strain/Indicator: TA1535, Metabolic Activation: NONE, Method: PREINCUBATION); “inactive; negative” (Test System: AMES SALMONELLA TYPHIMURIUM, Strain/Indicator: TA1535, Metabolic Activation: RAT, LIVER, S-9, AROCLOR 1254 (10%), Method: PREINCUBATION); “inactive; negative” (Test System: AMES SALMONELLA TYPHIMURIUM, Strain/Indicator: TA1535, Metabolic Activation: RAT, LIVER, S-9, AROCLOR 1254 (30%), Method: PREINCUBATION); “inactive; negative” (Test System: E.COLI, Strain/Indicator: WP2 UVRA, Metabolic Activation: NONE, Method: PREINCUBATION); “inactive; negative” (Test System: E.COLI, Strain/Indicator: WP2 UVRA, Metabolic Activation: RAT LIVER S-9, PCB, Method: PREINCUBATION).

With `C/C=C/C=C/C(=O)O`, the mutagenic call runs as follows: (Test System: AMES SALMONELLA TYPHIMURIUM, Strain/Indicator: TA97A, Metabolic Activation: NONE, Method: PREINCUBATION) “inactive; negative”; (Test System: AMES SALMONELLA TYPHIMURIUM, Strain/Indicator: TA97A, Metabolic Activation: RAT, LIVER, S-9, AROCLOR 1254, Method: PREINCUBATION) “inactive; negative”; (Test System: AMES SALMONELLA TYPHIMURIUM, Strain/Indicator: TA102, Metabolic Activation: NONE, Method: PREINCUBATION) “inactive; negative”; (Test System: AMES SALMONELLA TYPHIMURIUM, Strain/Indicator: TA102, Metabolic Activation: RAT, LIVER, S-9, AROCLOR 1254, Method: PREINCUBATION) “inactive; negative”; (Test System: CHINESE HAMSTER V-79, Strain/Indicator: V-79/6-THIOGUANINE, Metabolic Activation: NONE, Method: FLASK ASSAY) “active; positive”.

For `CC(C)[C@@](O)(C(=O)OC[C@@H]1CCN2CCC[C@H]12)[C@@H](C)O`, the mutagenic call is, setting by setting: (Test System: AMES SALMONELLA TYPHIMURIUM, Strain/Indicator: TA100, Metabolic Activation: HAMSTER, LIVER, S-9, PCB, Method: PREINCUBATION) “inactive; negative”; (Test System: AMES SALMONELLA TYPHIMURIUM, Strain/Indicator: TA100, Metabolic Activation: RAT, LIVER, S-9, PCB, Method: PREINCUBATION) “inactive; negative”.

In the case of `CCOC(=O)c1[nH]c2ccccc2c1N=Cc1ccc(O)cc1`, the mutagenic call is “active; positive” (Test System: AMES SALMONELLA TYPHIMURIUM, Strain/Indicator: TA97, Metabolic Activation: NONE, Method: STANDARD PLATE); “inactive; negative” (Test System: AMES SALMONELLA TYPHIMURIUM, Strain/Indicator: TA97, Metabolic Activation: RAT, LIVER, S-9, AROCLOR 1254, Method: STANDARD PLATE); “inactive; negative” (Test System: AMES SALMONELLA TYPHIMURIUM, Strain/Indicator: TA98, Metabolic Activation: NONE, Method: STANDARD PLATE); “inactive; negative” (Test System: AMES SALMONELLA TYPHIMURIUM, Strain/Indicator: TA98, Metabolic Activation: RAT, LIVER, S-9, AROCLOR 1254, Method: STANDARD PLATE); “inactive; negative” (Test System: AMES SALMONELLA TYPHIMURIUM, Strain/Indicator: TA100, Metabolic Activation: NONE, Method: STANDARD PLATE); “inactive; negative” (Test System: AMES SALMONELLA TYPHIMURIUM, Strain/Indicator: TA100, Metabolic Activation: RAT, LIVER, S-9, AROCLOR 1254, Method: STANDARD PLATE). Further, the mutagenic call reads like this: (Test System: AMES SALMONELLA TYPHIMURIUM, Strain/Indicator: TA102, Metabolic Activation: NONE, Method: STANDARD PLATE) “inactive; negative”; (Test System: AMES SALMONELLA TYPHIMURIUM, Strain/Indicator: TA102, Metabolic Activation: RAT, LIVER, S-9, AROCLOR 1254, Method: STANDARD PLATE) “inactive; negative”.

In the case of `O[C@H]1C=Cc2cccc3c2[C@@]1(O)c1ccccc1-3`, the mutagenic call was “inactive; negative” (Test System: AMES SALMONELLA TYPHIMURIUM, Strain/Indicator: TM677, Metabolic Activation: NONE, Method: PREINCUBATION) and “inactive; negative” (Test System: AMES SALMONELLA TYPHIMURIUM, Strain/Indicator: TM677, Metabolic Activation: RAT, LIVER, POSTMITOCHONDRIAL SUPERNATANT, AROCLOR 1254, Method: PREINCUBATION).
